Test system: SIRT
Experiment: in vitro SIRT activity in treated cells, lysed after treatment (BioMol SIRT Activity Assay kit)
Format: cell-based
Conditions: depending on the cell line; positive control
From the text: Among other suitable combinations, one exemplary SIRT activating combination of B-vitamins was formulated that included a combination of vitamin B2, B1, B3, B6, B12, and B5. Using that combination, HeLa cells were separately treated in vitro for 4 hrs, along with a reference compound (here: resveratrol) as positive control, as well as individually with the respective above vitamins at a total concentrations of 0.1% (wt/vol) of culture medium. To measure SIRT activation, the cells were lysed after treatment and SIRT activity was determined using a commercially available SIRT Activity Assay kit (BioMol, Inc.; Catalog #KI-104).
Moreover, in vitro activation with the known SIRT activator resveratrol was, depending on the cell line, between about 15-120% of untreated control, making the SIRT activation with the vitamin compounds even more remarkable.
In an experiment similar to that above, FIG. 2 depicts further combinations for selected vitamin B compounds in which the columns show the results for A (Riboflavin, vitamin B2), B (Thiamine, vitamin B1), C (Niacinamide, vitamin B3), D (Pyridoxine, vitamin B6), E (Cyanocobolamin, vitamin B12), F (Ca-Panthotenate, vitamin B5), G=Blend of A-F (VSIRT), H (Pyrodoxine, vitamin B6 plus Cobalamin, vitamin B12), 0.05% each, and I (H plus Riboflavin, vitamin B2) (0.033% each). […]

With `Oc1ccc(C=Cc2cc(O)cc(O)c2)cc1` [resveratrol] as the compound, how does the “in vitro activation of SIRT” value read?
Its value is 15-120 % of untreated control.
